Experiment in all cases: normalised response (% of control), CellTiter-Glo; higher = more viable cells (100 = DMSO, 0 = benzethonium chloride kill control)
Conditions in all cases: incubation time: 72 h

The test system of assay [1] is CAL-120. The method, then: (§1)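 DSRT, 72 h incubation, CellTox Green / CellTiter-Glo readout. Signal is normalised to DMSO and benzethonium chloride controls. Value is the normalised response at the highest dose.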
Assay [2] deals with HCC1143. The method, then:
as §1

The subject of the next assay is MDA-MB-231. The method, then: as §1
Assay [3] relates to MDA-MB-453. The method, then: as §1
The next assay deals with BT-474. The method, then: as §1
Another assay relates to HDQ-P1. The method, then:
as §1

In the next assay the test system is DU-4475. The method, then: as §1
The subject of another assay is MDA-MB-468. The method, then: as §1
A further assay deals with MCF-10A. The method, then:
as §1

The next assay deals with CAL-85-1. The method, then:
as §1

For another assay, the system named is HCC1599. The method, then: as §1
In assay [4] the test system is CAL-51. The method, then: as §1
The subject of assay [5] is MDA-MB-436. The method, then: as §1
A further assay concerns Hs578T. The method, then:
as §1

For another assay, the system named is HCC1937. The method, then: as §1
A further assay has as its system BT-549. The method, then: as §1
A further assay has as its system MFM-223. The method, then: as §1
The subject of a further assay is SK-BR-3. The method, then: as §1
Assay [6] deals with CAL-148. The method, then:
as §1

For assay [7], the system named is CAL-120. The method in brief:
(§2)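 In 384-well plates holding compound at 5 concentrations in 10-fold steps over a 10,000-fold range specific to each compound, breast cancer cell lines were seeded as 20 µl suspension and incubated 72 h. CellTox Green fluorescence was measured at 485/520 nm, after which CellTiter-Glo luminescence was measured following 10 min at room temperature. Plate signals were normalised to 0.1 % DMSO (100) and a positive kill control (0), and each value is the normalised signal at a single concentration.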
The source holds these as a separate data set.

The subject of assay [8] is HCC1143. A digest of the protocol:
as §2
The source holds these as a separate data set.

Assay [9] deals with MDA-MB-453. A digest of the protocol: as §2
The source holds these as a separate data set.

The test system of assay [10] is CAL-51. A digest of the protocol: as §2
This is another data set of the same source.

The test system of assay [11] is MDA-MB-436. A digest of the protocol: as §2
The source holds these as a separate data set.

Assay [12] deals with CAL-148. The method in brief:
as §2
The source holds these as a separate data set.

Turning to `C#Cc1cccc(Nc2ncnc3cc(OC)c(OCCCCCCC(=O)NO)cc23)c1` [CUDC-101] (10000 nM), the normalised response in the assay on CAL-120 [1] amounted to 38.6%; with HCC1143 [2], 15.1%; in the assay with MDA-MB-231, 2.74%; with MDA-MB-453 [3] it was 4.64%; in the assay on BT-474 it was 8.24%; in the assay with HDQ-P1 it was 33.4%. Further, the normalised response with DU-4475 is 5.82%; in the assay with MDA-MB-468, 9.04%; in the assay on MCF-10A it was 8.27%; in the assay with CAL-85-1 it was 1.02%; in the assay with HCC1599, 7.05%; with CAL-51 [4], 12.8%. The normalised response was found to be 33.5% in the assay with MDA-MB-436 [5]; 6.2% in the assay on Hs578T; 21% in the assay with HCC1937; 18% with BT-549; 26.4% in the assay with MFM-223; 0.76% with SK-BR-3. In addition, the normalised response with CAL-148 [6] stood at 0.32%.

As for `COc1cccc2c1C(=O)c1c(O)c3c(c(O)c1C2=O)C[C@@](O)(C(C)=O)C[C@@H]3O[C@H]1C[C@H](N)[C@H](O)[C@H](C)O1` [Daunorubicin] (100 nM), the normalised response was 93.1% with CAL-120 [7]; 95.8% in the assay on HCC1143 [8]; 139% in the assay on MDA-MB-453 [9]; 46.2% in the assay with CAL-51 [10]; 77.9% in the assay on MDA-MB-436 [11]; 64.8% in the assay with CAL-148 [12].

On to `COc1cccc2c1C(=O)c1c(O)c3c(c(O)c1C2=O)C[C@@](O)(C(C)=O)C[C@@H]3O[C@H]1C[C@H](N)[C@H](O)[C@H](C)O1` [Daunorubicin] (1000 nM), for which the normalised response in the assay with CAL-120 [1] was 41.2%; in the assay with HCC1143 [2] it was 23.9%; in the assay with MDA-MB-231, 8.81%; in the assay on MDA-MB-453 [3] it was 4.31%; with BT-474, 19%; with HDQ-P1, 27.9%. The normalised response with DU-4475 stood at 0.14%; in the assay on MDA-MB-468, 8.42%; in the assay with MCF-10A, 27.1%; in the assay with CAL-85-1, 7.68%; with HCC1599, 19.3%; in the assay on CAL-51 [4] it was 3.08%. Moreover, the normalised response in the assay with MDA-MB-436 [5] turned out to be 22.8%; in the assay with Hs578T, 35.1%; with HCC1937 it was 32.1%; with BT-549, 10.7%; in the assay with MFM-223 it was 34.7%; with SK-BR-3, 11.6%. Moreover, the normalised response in the assay with CAL-148 [6] was found to be 0.79%.

Regarding `CN1CCN(c2ccc3nc(-c4c(N)c5c(F)cccc5[nH]c4=O)[nH]c3c2)CC1` [Dovitinib] (1000 nM), the normalised response stood at 92.1% with CAL-120 [7]; 99.1% in the assay with HCC1143 [8]; 92% in the assay with MDA-MB-453 [9]; 115% in the assay with CAL-51 [10]; 101% with MDA-MB-436 [11]; 94.9% in the assay on CAL-148 [12].

`O=c1[nH]c(=O)n([C@H]2C[C@H](O)[C@@H](CO)O2)cc1F` [Floxuridine] (1000 nM): the normalised response in the assay with CAL-120 [7] came out at 39.8%; in the assay on HCC1143 [8] it was 94.3%; in the assay on MDA-MB-453 [9] it was 102%; with CAL-51 [10], 37.8%; in the assay on MDA-MB-436 [11], 67.9%; with CAL-148 [12], 92.4%.

Take `O=c1[nH]cc(F)c(=O)[nH]1` [Fluorouracil] (1000 nM): the normalised response with CAL-120 [7] came to 106%; in the assay on HCC1143 [8], 100%; with MDA-MB-453 [9], 121%; in the assay with CAL-51 [10] it was 110%; in the assay with MDA-MB-436 [11], 75.6%; with CAL-148 [12], 95.6%.

Take `C[C@@H]1C=C2C(=O)O[C@@H]3CC[C@H](C1)[C@]23O` [Galiellalactone] (5000 nM): the normalised response in the assay with CAL-120 [7] came out at 103%; with HCC1143 [8], 101%; with MDA-MB-453 [9] it was 105%; in the assay on CAL-51 [10], 71.9%; with MDA-MB-436 [11] it was 106%; in the assay with CAL-148 [12] it was 110%.

With `COC1=C2C[C@@H](C)C[C@H](OC)[C@H](O)[C@@H](C)/C=C(\C)[C@H](OC(N)=O)[C@@H](OC)/C=C\C=C(/C)C(=O)NC(=CC1=O)C2=O` [Geldanamycin] (1000 nM), the normalised response in the assay with CAL-120 [7] was determined as 102%; with HCC1143 [8], 102%; in the assay with MDA-MB-453 [9], 96.6%; in the assay with CAL-51 [10], 96.2%; in the assay with MDA-MB-436 [11], 64.4%; with CAL-148 [12], 106%.

`Cn1cnc2c(F)c(Nc3ccc(Br)cc3F)c(C(=O)NOCCO)cc21` [MEK-162] (100 nM): the normalised response in the assay on CAL-120 [7] stood at 94%; in the assay on HCC1143 [8] it was 90.5%; with MDA-MB-453 [9] it was 104%; in the assay on CAL-51 [10], 104%; with MDA-MB-436 [11] it was 100%; in the assay on CAL-148 [12], 91.1%.

As to `CCOc1cc2ncc(C#N)c(Nc3ccc(OCc4ccccn4)c(Cl)c3)c2cc1NC(=O)/C=C/CN(C)C` [Neratinib] (100 nM), the normalised response was 99% in the assay on CAL-120 [7]; 98.8% in the assay on HCC1143 [8]; 68% in the assay with MDA-MB-453 [9]; 112% in the assay on CAL-51 [10]; 95% in the assay with MDA-MB-436 [11]; 83.4% with CAL-148 [12].

For `COc1ccc(C2=N[C@@H](c3ccc(Cl)cc3)[C@@H](c3ccc(Cl)cc3)N2C(=O)N2CCNC(=O)C2)c(OC(C)C)c1` [Nutlin-3] (1000 nM), the normalised response in the assay on CAL-120 [7] was determined as 93.6%; in the assay on HCC1143 [8], 99.8%; with MDA-MB-453 [9] it was 102%; in the assay with CAL-51 [10], 83.9%; in the assay on MDA-MB-436 [11] it was 110%; in the assay on CAL-148 [12], 101%.

Consider `COC1=CC(c2cc3ccccc3[nH]2)=N/C1=C\c1[nH]c(C)cc1C` [Obatoclax] (1000 nM), for which the normalised response worked out at 94.2% with CAL-120 [7]; 87.4% in the assay with HCC1143 [8]; 96.3% in the assay on MDA-MB-453 [9]; 99.5% in the assay on CAL-51 [10]; 89.7% in the assay on MDA-MB-436 [11]; 81.5% with CAL-148 [12].

On to `CC(=O)O[C@H]1C(=O)[C@@]2(C)[C@H]([C@H](OC(=O)c3ccccc3)[C@]3(O)C[C@H](OC(=O)[C@H](O)[C@@H](NC(=O)c4ccccc4)c4ccccc4)C(C)=C1C3(C)C)[C@]1(OC(C)=O)CO[C@@H]1C[C@@H]2O` [Paclitaxel] (100 nM), for which the normalised response worked out at 47.7% in the assay with CAL-120 [7]; 30.7% with HCC1143 [8]; 57.5% in the assay with MDA-MB-453 [9]; 29.3% in the assay with CAL-51 [10]; 28.1% in the assay on MDA-MB-436 [11]; 39.6% in the assay on CAL-148 [12].

For `CC(C)(C)c1cc(NC(=O)Nc2ccc(-c3cn4c(n3)sc3cc(OCCN5CCOCC5)ccc34)cc2)no1` [Quizartinib] (100 nM), the normalised response in the assay on CAL-120 [7] was 106%; with HCC1143 [8], 105%; with MDA-MB-453 [9], 104%; with CAL-51 [10], 107%; in the assay on MDA-MB-436 [11], 111%; with CAL-148 [12], 100%.

Turning to `O=C(c1ccc(OCCN2CCCCC2)cc1)c1c(-c2ccc(O)cc2)sc2cc(O)ccc12` [Raloxifene] (1000 nM), the normalised response turned out to be 96.3% with CAL-120 [7]; 110% in the assay on HCC1143 [8]; 103% in the assay on MDA-MB-453 [9]; 121% in the assay on CAL-51 [10]; 103% in the assay with MDA-MB-436 [11]; 103% in the assay on CAL-148 [12].

As to `Cn1c(=O)c(F)c(Nc2ccc(I)cc2F)c2c(=O)n(C[C@@H](O)CO)cnc21` [TAK-733] (100 nM), the normalised response came to 76.7% in the assay on CAL-120 [7]; 93.5% in the assay on HCC1143 [8]; 123% with MDA-MB-453 [9]; 64.6% with CAL-51 [10]; 97.1% in the assay with MDA-MB-436 [11]; 90.4% with CAL-148 [12].

As to `CCS(=O)(=O)c1cccc(-c2cc(C(=O)NC3CCN(C)CC3)c(C)c3[nH]c4ncc(C)cc4c23)c1` [TAK-901] (100 nM), the normalised response turned out to be 81.5% with CAL-120 [7]; 77.2% in the assay with HCC1143 [8]; 160% in the assay on MDA-MB-453 [9]; 82.4% with CAL-51 [10]; 97.2% with MDA-MB-436 [11]; 45.6% in the assay on CAL-148 [12].

Values taken from the supplement of paper PMC4862054.
